Reference: patent publication US20070298099A1, “Liquid and Semi-Solid Pharmaceutical Formulations for Oral Administration of a Substituted Amide” (priority 2004, published 2007)

Assays:
[1] = Solubility of Compound I Polymorph B in various liquid vehicles (suspension equilibrated at least 24 hours, filtered, HPLC); type: physicochemical
Procedure: Solubility determinations were carried out at room temperature unless otherwise specified. Solubility of N-[1S,2S]-3-(4-chlorophenyl)-2-(3-cyanophenyl)-1-methylpropyl]-2-methyl-2-{[5-trifluoromethyl]pyridine-2-yl}oxy}propanamide (Compound I) as anhydrous unsolvated Polymorph B (such as prepared in Preparatory Example 2) was determined by preparing a suspension of anhydrous unsovated Polymorph B of Compound I in the solvent system. After equilibration for at least 24 hours, the suspension was filtered and the supernatant was analyzed by HPLC. Chromatography was performed on either a Vydac C18 300 A 250×4.6 mm 5 um particle size with in-line Phenomenex Security Guard w/ C18 cartridge or on a Polaris C18-Ether columns or on a Polaris C8-Ether columns using 0.1% phosphoric acid in combination with methanol or acetonitrile depending on HPLC conditions. The compound was detected at […] and assayed using standard curves. The results are presented below in Table 1, calculated based on mg/g vehicle.

[2] = Aqueous solubility of Compound I; type: physicochemical
[3] = Oral bioavailability when dosed as a crystalline solid, dogs; type: in vivo; conditions: even when surfactant was included in the formulation
[4] = Oral bioavailability when dosed as a crystalline solid, monkeys; type: in vivo; conditions: even when surfactant was included in the formulation

Compound: C[C@H](NC(=O)C(C)(C)Oc1ccc(C(F)(F)F)cn1)[C@@H](Cc1ccc(Cl)cc1)c1cccc(C#N)c1 [Compound I, N-[1S,2S]-3-[(4-chlorophenyl)-2-(3-cyanophenyl)-1-methylpropyl]-2-methyl-2-{[(5-trifluoromethyl)pyridine-2-yl]oxy}propanamide]
- Solubility of Compound I, mg/g of vehicle ([1]; CAPRYOL PGMC, anhydrous unsolvated Polymorph B, room temperature): 396 mg/g of vehicle
- Solubility of Compound I, mg/g of vehicle ([1]; CREMOPHOR-EL, Polymorph B, room temperature): 131 mg/g of vehicle
- Solubility of Compound I, mg/g of vehicle ([1]; Corn oil-SPAN 80-CREMOPHOR EL (35:35:30), w/w/w, Polymorph B, room temperature): 69 mg/g of vehicle
- Solubility of Compound I, mg/g of vehicle ([1]; Corn oil-SPAN 80-TWEEN 80 (30:30:40), w/w/w, Polymorph B, room temperature): 78 mg/g of vehicle
- Solubility of Compound I, mg/g of vehicle ([1]; Corn oil/Oleic acid/TWEEN 80 (5:2:3), w/w/w, Polymorph B, room temperature): 57 mg/g of vehicle
- Solubility of Compound I, mg/g of vehicle ([1]; Glycerol, Polymorph B, room temperature): 0.4 mg/g of vehicle
- Solubility of Compound I, mg/g of vehicle ([1]; IMWITOR 742-MIGLYOL 812-TWEEN 80, (15:65:20) w/w/w, Polymorph B, room temperature): 140 mg/g of vehicle
- Solubility of Compound I, mg/g of vehicle ([1]; IMWITOR 742-MIGLYOL 812-TWEEN 80, (30:50:20) w/w/w, Polymorph B, room temperature): 171 mg/g of vehicle
- Solubility of Compound I, mg/g of vehicle ([1]; IMWITOR 742-MIGLYOL 812-TWEEN 80, (40:40:20) w/w/w, Polymorph B, room temperature): 187 mg/g of vehicle
- Solubility of Compound I, mg/g of vehicle ([1]; IMWITOR 742-MIGLYOL 812-TWEEN 80,(45:45:10) w/w/w, Polymorph B, room temperature): ≧191 mg/g of vehicle
- Solubility of Compound I, mg/g of vehicle ([1]; IMWITOR 742-Oleic Acid-TWEEN 80-MIGLYOL 812 (2:4:2:2), w/w/w/w, Polymorph B, room temperature): 140 mg/g of vehicle
- Solubility of Compound I, mg/g of vehicle ([1]; IMWITOR 742-TWEEN 80 (50:50) w/w, Polymorph B, room temperature): 184 mg/g of vehicle
- Solubility of Compound I, mg/g of vehicle ([1]; IMWITOR 742-TWEEN 80 (60:40), w/w, Polymorph B, room temperature): 209 mg/g of vehicle
- Solubility of Compound I, mg/g of vehicle ([1]; IMWITOR 742-TWEEN 80, (70:30), w/w, Polymorph B, room temperature): 222 mg/g of vehicle
- Solubility of Compound I, mg/g of vehicle ([1]; IMWITOR 742-TWEEN 80-Oleic Acid (4:2:4), w/w/w, Polymorph B, room temperature): 159 mg/g of vehicle
- Solubility of Compound I, mg/g of vehicle ([1]; IMWITOR 742-TWEEN 80-Oleic Acid (5:3:2), w/w/w, Polymorph B, room temperature): 178 mg/g of vehicle
- Solubility of Compound I, mg/g of vehicle ([1]; IMWITOR 742, at 30 C., anhydrous unsolvated Polymorph B): 267 (at 30 C.) mg/g of vehicle
- Solubility of Compound I, mg/g of vehicle ([1]; LABRAFIL M1944CS, Polymorph B, room temperature): 84 mg/g of vehicle
- Solubility of Compound I, mg/g of vehicle ([1]; LABRASOL, Polymorph B, room temperature): 202 mg/g of vehicle
- Solubility of Compound I, mg/g of vehicle ([1]; MIGLYOL 812-Corn oil-SPAN 80-TWEEN 80 (30:20:25:25), w/w/w, Polymorph B, room temperature): 97 mg/g of vehicle
- Solubility of Compound I, mg/g of vehicle ([1]; MIGLYOL 812-IMWITOR 742, 1:1 v/v, Polymorph B, room temperature): ≧204 mg/g of vehicle
- Solubility of Compound I, mg/g of vehicle ([1]; MIGLYOL 812-IMWITOR 742, 4:1 v/v, Polymorph B, room temperature): 173 mg/g of vehicle
- Solubility of Compound I, mg/g of vehicle ([1]; MIGLYOL 812-LABRASOL/TWEEN80/Oleic acid (40:25:25:10), w/w/w/w, Polymorph B, room temperature): 158 mg/g of vehicle
- Solubility of Compound I, mg/g of vehicle ([1]; MIGLYOL 812-PECEOL, 1:1 v/v, Polymorph B, room temperature): 118 mg/g of vehicle
- Solubility of Compound I, mg/g of vehicle ([1]; MIGLYOL 812-TWEEN 80, 1:1 w/w, Polymorph B, room temperature): 113 mg/g of vehicle
- Solubility of Compound I, mg/g of vehicle ([1]; MIGLYOL 812/Oleic acid/CREMOPHOR EL (5:2:3), w/w/w/w, Polymorph B, room temperature): 129 mg/g of vehicle
- Solubility of Compound I, mg/g of vehicle ([1]; MIGLYOL 812/Oleic acid/TWEEN 80 (5:2:3), w/w/w/w, Polymorph B, room temperature): 120 mg/g of vehicle
- Solubility of Compound I, mg/g of vehicle ([1]; MIGLYOL 812, Polymorph B, room temperature): 94 mg/g of vehicle
- Solubility of Compound I, mg/g of vehicle ([1]; Oleic Acid, Polymorph B, room temperature): 20 mg/g of vehicle
- Solubility of Compound I, mg/g of vehicle ([1]; Olive oil, Polymorph B, room temperature): 18 mg/g of vehicle
- Solubility of Compound I, mg/g of vehicle ([1]; PEG400-TWEEN80 (1:1), w/w, Polymorph B, room temperature): 138 mg/g of vehicle
- Solubility of Compound I, mg/g of vehicle ([1]; PEG400, Polymorph B, room temperature): 120 mg/g of vehicle
- Solubility of Compound I, mg/g of vehicle ([1]; PG, Polymorph B, room temperature): 28 mg/g of vehicle
- Solubility of Compound I, mg/g of vehicle ([1]; SPAN 80, Polymorph B, room temperature): 45 mg/g of vehicle
- Solubility of Compound I, mg/g of vehicle ([1]; Soybean Oil, Polymorph B, room temperature): 21 mg/g of vehicle
- Solubility of Compound I, mg/g of vehicle ([1]; Soybean oil-SPAN 80-TWEEN 80 (50:25:25), w/w/w, Polymorph B, room temperature): 59 mg/g of vehicle
- Solubility of Compound I, mg/g of vehicle ([1]; TWEEN 80-LABRASOL-Oleic Acid (25:25:50), w/w/w, Polymorph B, room temperature): 120 mg/g of vehicle
- Solubility of Compound I, mg/g of vehicle ([1]; TWEEN 80, Polymorph B, room temperature): 104 mg/g of vehicle
- solubility ([2]; aqueous medium (not further specified)): < 0.4 µg/mL
- solubility ([2]; aqueous medium, typically): < 0.4 µg/mL
- oral bioavailability [3]: very poorly orally bioavailable
- oral bioavailability [4]: very poorly orally bioavailable
